System: NCI-H719 tumor spheroids, viability
Test: Anticancer human tumor NCI-H719 cell line growth inhibition;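 note: spheroids exposed to compounds for seven days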;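 for viability, T/C: percent viability relative to DMSO vehicle control as 100%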
Details: spheroids with HUVEC and MSC; for IC50: curve of first compound; for viability, T/C: stronger effect = lower value
How it was run: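 Complex spheroids of malignant cells with endothelial cells and mesenchymal stem cells; agents alone or combined, from near clinical Cmax (or 10 microM if unknown) down in half-log steps, 0.25% DMSO final.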

`O=C(c1cc(Cc2n[nH]c(=O)c3ccccc23)ccc1F)N1CCN(C(=O)C2CC2)CC1` + COc1cc2c(cc1O)CCNC21CSC2c3c(OC(C)=O)c(C)c4c(c3C(COC1=O)N1C(O)C3Cc5cc(C)c(OC)c(O)c5C(C21)N3C)OCO4 was tested. Which IC50 (second compound 30 pM) did it give?
The IC50 was 356 nM.

What about the IC50 (second compound 94.9 pM) of the same compound?
The IC50 was under 94.9 nM.

And the IC50 (second compound 0.0003 µM)?
The IC50 was under 94.9 nM.

What about the IC50 (second compound 0.000949 µM) of the same compound?
The IC50 was under 94.9 nM.

And the IC50 (second compound 0.003 µM)?
The IC50 was under 94.9 nM.

What about the viability, T/C (second compound 30 pM, first compound 0.0949 µM) of the same compound?
The viability, T/C was 67%.

And the viability, T/C (second compound 30 pM, first compound 0.3 µM)?
The viability, T/C was 48.7%.

And the viability, T/C (second compound 30 pM, first compound 0.949 µM)?
Its viability, T/C is 41.7%.

What about the viability, T/C (second compound 30 pM, first compound 3 µM) of the same compound?
Its viability, T/C is 22.3%.

What about the viability, T/C (second compound 30 pM, first compound 9.49 µM) of the same compound?
The viability, T/C was 12.5%.

And the viability, T/C (second compound 30 pM, first compound 30 µM)?
The viability, T/C was 8.97%.

What about the viability, T/C (second compound 94.9 pM, first compound 0.0949 µM) of the same compound?
The viability, T/C was 23.4%.

And the viability, T/C (second compound 94.9 pM, first compound 0.3 µM)?
Its viability, T/C is 13.7%.

And the viability, T/C (second compound 94.9 pM, first compound 0.949 µM)?
Its viability, T/C is 14%.

What about the viability, T/C (second compound 94.9 pM, first compound 3 µM) of the same compound?
Its viability, T/C is 13.3%.

And the viability, T/C (second compound 94.9 pM, first compound 9.49 µM)?
Its viability, T/C is 13.3%.

What about the viability, T/C (second compound 94.9 pM, first compound 30 µM) of the same compound?
The viability, T/C was 6.02%.

And the viability, T/C (second compound 0.0003 µM, first compound 0.0949 µM)?
Its viability, T/C is 10.9%.

And the viability, T/C (second compound 0.0003 µM, first compound 0.3 µM)?
Its viability, T/C is 8.6%.

What about the viability, T/C (second compound 0.0003 µM, first compound 0.949 µM) of the same compound?
The viability, T/C was 11.6%.

And the viability, T/C (second compound 0.0003 µM, first compound 3 µM)?
The viability, T/C was 11.6%.

What about the viability, T/C (second compound 0.0003 µM, first compound 9.49 µM) of the same compound?
Its viability, T/C is 8.94%.

What about the viability, T/C (second compound 0.0003 µM, first compound 30 µM) of the same compound?
The viability, T/C was 6.85%.

What about the viability, T/C (second compound 0.000949 µM, first compound 0.0949 µM) of the same compound?
Its viability, T/C is 6.97%.

And the viability, T/C (second compound 0.000949 µM, first compound 0.3 µM)?
Its viability, T/C is 8.6%.

What about the viability, T/C (second compound 0.000949 µM, first compound 0.949 µM) of the same compound?
The viability, T/C was 8.56%.

And the viability, T/C (second compound 0.000949 µM, first compound 3 µM)?
Its viability, T/C is 7.26%.

What about the viability, T/C (second compound 0.000949 µM, first compound 9.49 µM) of the same compound?
Its viability, T/C is 5.7%.

What about the viability, T/C (second compound 0.000949 µM, first compound 30 µM) of the same compound?
The viability, T/C was 4.86%.

What about the viability, T/C (second compound 0.003 µM, first compound 0.0949 µM) of the same compound?
Its viability, T/C is 0.61%.

What about the viability, T/C (second compound 0.003 µM, first compound 0.3 µM) of the same compound?
Its viability, T/C is 0.45%.

What about the viability, T/C (second compound 0.003 µM, first compound 0.949 µM) of the same compound?
Its viability, T/C is 0.63%.

What about the viability, T/C (second compound 0.003 µM, first compound 3 µM) of the same compound?
Its viability, T/C is 0.7%.

What about the viability, T/C (second compound 0.003 µM, first compound 9.49 µM) of the same compound?
Its viability, T/C is 0.69%.

What about the viability, T/C (second compound 0.003 µM, first compound 30 µM) of the same compound?
The viability, T/C was 1.37%.

For `CC1COCCN1c1cc(-c2ccnn2C)c2ccnc(-c3ccn[nH]3)c2n1` (stereo not given) + CC[C@@]1(O)C(=O)OCc2c1cc1n(c2=O)Cc2cc3c(CN(C)C)c(O)ccc3nc2-1, which IC50 (second compound 0.003 µM) is on record?
The IC50 was under 31.6 nM.

And the IC50 (second compound 0.00949 µM)?
The IC50 was under 31.6 nM.

And the IC50 (second compound 0.03 µM)?
The IC50 was under 31.6 nM.

What about the IC50 (second compound 0.0949 µM) of the same compound?
The IC50 was under 31.6 nM.

What about the IC50 (second compound 0.3 µM) of the same compound?
The IC50 was under 31.6 nM.

What about the viability, T/C (second compound 0.003 µM, first compound 0.0316 µM) of the same compound?
The viability, T/C was 14.9%.

And the viability, T/C (second compound 0.003 µM, first compound 0.1 µM)?
The viability, T/C was 7.36%.

What about the viability, T/C (second compound 0.003 µM, first compound 0.316 µM) of the same compound?
The viability, T/C was 5.05%.

What about the viability, T/C (second compound 0.003 µM, first compound 1 µM) of the same compound?
Its viability, T/C is 5.69%.

And the viability, T/C (second compound 0.003 µM, first compound 3.16 µM)?
Its viability, T/C is 5.95%.

What about the viability, T/C (second compound 0.003 µM, first compound 10 µM) of the same compound?
Its viability, T/C is 7.37%.

What about the viability, T/C (second compound 0.00949 µM, first compound 0.0316 µM) of the same compound?
Its viability, T/C is 5.44%.

And the viability, T/C (second compound 0.00949 µM, first compound 0.1 µM)?
Its viability, T/C is 4.76%.

What about the viability, T/C (second compound 0.00949 µM, first compound 0.316 µM) of the same compound?
The viability, T/C was 5.26%.

And the viability, T/C (second compound 0.00949 µM, first compound 1 µM)?
The viability, T/C was 4.81%.

What about the viability, T/C (second compound 0.00949 µM, first compound 3.16 µM) of the same compound?
Its viability, T/C is 5.91%.

And the viability, T/C (second compound 0.00949 µM, first compound 10 µM)?
The viability, T/C was 7.24%.

What about the viability, T/C (second compound 0.03 µM, first compound 0.0316 µM) of the same compound?
The viability, T/C was 5.59%.

What about the viability, T/C (second compound 0.03 µM, first compound 0.1 µM) of the same compound?
The viability, T/C was 5.35%.

What about the viability, T/C (second compound 0.03 µM, first compound 0.316 µM) of the same compound?
The viability, T/C was 4.66%.

And the viability, T/C (second compound 0.03 µM, first compound 1 µM)?
Its viability, T/C is 4.18%.

And the viability, T/C (second compound 0.03 µM, first compound 3.16 µM)?
Its viability, T/C is 5.76%.

And the viability, T/C (second compound 0.03 µM, first compound 10 µM)?
Its viability, T/C is 7.48%.

What about the viability, T/C (second compound 0.0949 µM, first compound 0.0316 µM) of the same compound?
The viability, T/C was 5.89%.

What about the viability, T/C (second compound 0.0949 µM, first compound 0.1 µM) of the same compound?
The viability, T/C was 5.72%.

What about the viability, T/C (second compound 0.0949 µM, first compound 0.316 µM) of the same compound?
The viability, T/C was 4.2%.

What about the viability, T/C (second compound 0.0949 µM, first compound 1 µM) of the same compound?
Its viability, T/C is 3.96%.

What about the viability, T/C (second compound 0.0949 µM, first compound 3.16 µM) of the same compound?
Its viability, T/C is 3.73%.

And the viability, T/C (second compound 0.0949 µM, first compound 10 µM)?
Its viability, T/C is 3.78%.

What about the viability, T/C (second compound 0.3 µM, first compound 0.0316 µM) of the same compound?
The viability, T/C was 5.64%.

What about the viability, T/C (second compound 0.3 µM, first compound 0.1 µM) of the same compound?
Its viability, T/C is 5.76%.

And the viability, T/C (second compound 0.3 µM, first compound 0.316 µM)?
Its viability, T/C is 5.49%.

What about the viability, T/C (second compound 0.3 µM, first compound 1 µM) of the same compound?
The viability, T/C was 2.94%.

And the viability, T/C (second compound 0.3 µM, first compound 3.16 µM)?
The viability, T/C was 2.15%.

And the viability, T/C (second compound 0.3 µM, first compound 10 µM)?
The viability, T/C was 2.17%.
